Measurements taken from paper PMC6085820 (Molecular Biology of the Cell, 2018).

Biological target: T1, Mtq2:Trm112 (Saccharomyces cerevisiae, UniProt Q03920)
T1 sequence (Q03920 1-221): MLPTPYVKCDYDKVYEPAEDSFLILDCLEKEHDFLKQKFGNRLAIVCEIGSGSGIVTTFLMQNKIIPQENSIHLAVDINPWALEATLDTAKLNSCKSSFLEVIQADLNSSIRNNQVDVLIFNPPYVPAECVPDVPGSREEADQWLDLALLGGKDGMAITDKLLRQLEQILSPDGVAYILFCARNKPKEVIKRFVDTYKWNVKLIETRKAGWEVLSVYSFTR
T1 sequence (P53738 1-135 partner): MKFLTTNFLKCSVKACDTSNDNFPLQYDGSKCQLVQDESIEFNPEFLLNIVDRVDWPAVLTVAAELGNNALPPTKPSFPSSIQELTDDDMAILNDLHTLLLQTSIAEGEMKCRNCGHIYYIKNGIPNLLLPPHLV
Assay: MTase-Glo coupled luminescence assay
Format: biochemical
Conditions: SAM as methyl donor

Row | Compound | MTase-Glo coupled luminescence assay (SAH formation) (100 µM MAs(III)) | MTase-Glo coupled luminescence assay (SAH formation) (100 µM As(III))
1 | C[As](O)O [MAs(III), methyl arsenite] | methyltransferase activity was SAM-dependent and additionally capable of using MAs(III) as a substrate | 
2 | O[As](O)O [As(III), sodium arsenite] |  | SAM-dependent methyltransferase activity of Mtq2:Trm112 using As(III) as substrate was measured
